Laboratory results taken from PMC5641120, “Small-molecule inhibitors of PD-1/PD-L1 immune checkpoint alleviate the PD-L1-induced exhaustion of T-cells” (Oncotarget, 2017).

Assays:
[1] = test system: PD-1 Effector Cells (modified Jurkat T cells, ECs); assay: Cytotoxicity (metabolic activity assay) against PD-1 Effector Cells; settings: ECs, 48 h treatment, metabolic activity assay
Experimental: (§2) To define the maximum admissible concentrations of BMS compounds for the use in the cell-based assays, the toxicity of the compounds was evaluated with the use of metabolic activity assay. For this, modified Jurkat T cells (ECs) used in all further assays were exposed to the increasing concentration of the tested compounds for 48 h.
(§3) Figure 2 Cytotoxicity and activity of BMS compounds in PD-1/PD-L1 checkpoint assay (A) Cytotoxicity of BMS compounds against the PD-1 Effector Cells was tested using metabolic activity assay following the 48 h treatment of the cells with the indicated compounds. […] The graphs present relative luminescence normalized to the DMSO-treated controls and are representative of the three independent experiments. (D) The result of the fitting of Hill model to experimental data presented on panels B and C. EC50 values represent half maximal effective concentrations, and RLUmax values represent maximal relative luminescence values, and illustrate the potency of the listed molecules in restoring the activity of ECs in the assay.
(§4) 5 000 ECs were seeded on transparent 96-well plates and cultured for 48 h in the presence of increasing concentrations of the BMS compounds or DMSO as a control (the concentration of DMSO was kept constant in all samples). Following the treatment, a metabolic activity test was performed with the use of Biolog Redox Dye Mix MB (BioLog), according to the manufacturer's instructions.

human PD-1/PD-L1 complex = biological target: T1, human PD-1/PD-L1 complex (Homo sapiens, UniProt Q9NZQ7); design: method as in PMID 27083005; settings: shown previously; cited from earlier work
T1 construct: human PD-L1 (residues 18–134, C-terminal His-tag); His-tag (C); made in house

human PD-L1 [2] = biological target: T2, human PD-L1 (Homo sapiens, UniProt Q9NZQ7); design: method as in PMID 27083005; settings: shown previously; cited from earlier work
T2 construct: human PD-L1 (residues 18–134, C-terminal His-tag); His-tag (C); made in house

[3] = test system: PD-1/PD-L1 immune checkpoint; assay: PD1/PD-L1 checkpoint assay (ECs co-cultured with aAPCs, NFAT-luciferase reporter); format: cell-based, human; settings: for effect on luciferase reporter expression (in words): ECs co-cultured with aAPCs; for RLUmax (maximal relative luminescence): Hill fit, luminescence normalized to DMSO-treated controls; for EC50: Hill fit of luciferase activity, 6 h co-culture of ECs and aAPCs
Source text: A T lymphocyte-like cell line (Jurkat) modified to constitutively express PD-1 and carrying a luciferase reporter gene driven by TCR-inducible NFAT response element (Effector Cells, ECs) was used in T cell activation experiments. When antigen-presenting surrogate CHO cells, constitutively expressing the TCR agonist and PD-L1 (aAPCs) are presented to these ECs in co-culture, TCR signaling is repressed by PD-1 and the reporter remains silenced. Agents efficiently interfering with the PD-1/PD-L1 interaction activate the expression of the reporter gene resulting in the increase in luminescence intensity.
To verify the potency of BMS compounds in the inhibition of the PD-1/PD-L1 interactions, a cell-based model of the PD-1/PD-L1 immune checkpoint blockade was used. In the assay, two model cell lines are utilized: the artificial Antigen-Presenting Cells (PD-L1^+ aAPC/CHO-K1 cells, called aAPCs) overexpressing TCR ligand and PD-L1, and T cell surrogate, a modified Jurkat T cell line overexpressing PD-1 and carrying a luciferase reporter under the control of NFAT promoter (PD-1 Effector Cells, called ECs) [30]. […] Additionally, the cells were propagated in a constant presence of Hygromycin B (50 μg/ml) and G418 (250 μg/ml) to provide a stable expression of the introduced genetic constructs. The two latter antibiotics were omitted in the experiments. Overexpression of PD-1 on ECs and PD-L1 on aAPCs was verified by flow cytometry (not shown) and the presence of the luciferase-expressing gene was verified by monitoring luciferase activity following anti-CD3 antibody stimulation. Antibiotic selection, flow cytometry and reporter expression served as cell line authentication method. The cells were periodically tested and found negative for Mycoplasma contamination using PCR-based method [31].
The aAPCs were seeded in white 96-well plates at the density of 10 000 per well in the culture medium 24 h prior to the assay. […] By this, the concentration of DMSO was kept constant in all samples. 95 μl of the medium was removed from the wells and the cells were overlaid with 40 μl of the compound dilutions. […] Following 6 h incubation at 37°C, the plates were equilibrated at room temperature for 10 min and 80 μl of the Bio-Glo reagent (Promega) was added to each well. After incubation for 10 min, luminescence was quantified using FlexStation 3 (Molecular Devices). Half maximal effective concentrations (EC50) and maximal luminescence values (RLUmax) were determined by fitting the Hill equation to the experimental data.

PD-1/sPD-L1 = PD-1/sPD-L1 effector assay (anti-CD3 activated ECs, luciferase); format: cell-based, human; settings: anti-CD3, sPD-L1 0.6 μM, BMS compounds 0.12-3 μM; highest concentrations = 2- and 5-fold molar excess over sPD-L1; 24 h
Experimental: To evaluate the potential of BMS compounds in abrogating the inhibitory effect of sPD-L1 on the activation of T cells, sPD-L1 was pre-incubated with tested compounds and presented to ECs together with the anti-CD3-activating antibody.
For the evaluation of the BMS impact on T cell inhibition by soluble PD-L1, the ECs were stimulated with the anti-CD3 antibody in the presence of the recombinant human sPD-L1. For this, the 96-well white flat bottom plates were coated overnight at 4°C with 5 μg/ml of the anti-CD3 antibody or the isotype control solution in PBS. […] Then, 15 μl of the solution was added to each well of the antibody-coated plate. ECs were centrifuged and diluted to 50 000 per ml, and 60 μl of the cell solution was added to each well. The final concentration of sPD-L1 was 10 μg/ml (0.6 μM). The final concentrations of the BMS compounds were: 0.12, 0.3, 1.2 and 3 μM, giving the following BMS:sPD-L1 molar ratios: 1:5, 1:2, 2:1 and 5:1. The cells were cultured for 24 h and the luciferase activity assay was performed using the Bio-Glo Luciferase Assay System (Promega) according to the manufacturer's instructions.

[4] = Cytotoxicity (metabolic activity assay) against PD-1 Effector Cells; settings: human, PD-1 Effector Cells (modified Jurkat T cells, ECs)
Experimental: as §2, §3, §4

sPD-L1 [5] = biological target: T3, sPD-L1 (Homo sapiens, UniProt Q9NZQ7); assay: Complex analysis by gel filtration (size exclusion chromatography); settings: inhibitor:protein 3:1 molar ratio
T3 construct: human PD-L1 (residues 18–134, C-terminal His-tag); His-tag (C); made in house
Experimental: (§1) The formation of solution-stable PD-L1 dimers in the presence of BMS compounds was characterized previously for BMS-202 [26]. The crystal structures of BMS-1001 and −1166 bound to PD-L1 indicated similar properties of the compounds, but this required verification by in-solution assays. […] This was verified by a crosslinking experiment. sPD-L1 preincubated in the presence of a cross-linking agent (bis(sulfosuccinimidyl)suberate, BS3) migrated in SDS-PAGE as a single band corresponding to […] protein.
Superdex S75 10/30 HR column was equilibrated with 10 mM Tris pH 8.0 containing 20 mM NaCl. The column was calibrated with globular protein standards. The retention time of hPD-L1 (4 mg/ml) was determined. hPD-L1/inhibitor complexes were formed at 3:1 (inhibitor:protein) molar ratio, incubated for 15 min at room temperature and clarified by centrifugation for 10 min at 15 000 × g. The samples were analyzed in the same manner as the apo-hPD-L1.

sPD-L1 [6] = biological target: T3, sPD-L1; assay: BS3 cross-linking experiment (SDS-PAGE); settings: hPD-L1 10 μM, compound 1:1 molar ratio
Experimental: as §1
hPD-L1 was concentrated to 10 μM in PBS pH 7.4 and mixed with BMS-1001 or BMS-1166 in the 1:1 molar ratio, followed by the addition of the BS3 cross-linking reagent at 0.25, 0.5 or 1mM final concentration (Thermo Scientific). After 30-min incubation at room temperature, the reaction was quenched by the addition of Tris pH 7.5 to the final concentration of 25 mM. Control sample contained hPD-L1 and 1 mM BS3 reagent. The samples were analyzed by SDS-PAGE.

[7] = biological target: T4, sPD-L1 interaction with PD-1 receptor exposed at the cell surface (Homo sapiens, UniProt Q9NZQ7); assay: Flow cytometry binding of fluorescently labeled sPD-L1 (PD-L1-Atto) to PD-1 expressing cells; format: cell-based; settings: PD-L1-Atto 1.5 μM pre-incubated with 1 μM BMS compound or 125 μg/ml antibody
T4 construct: made in house; PD-1 stably overexpressed on Jurkat PD-1 Effector Cells from Promega
Experimental: To test if the observed effect of BMS compounds was directly associated with the decreased sPD-L1 recruitment to the cell surface of the PD-1-expressing cells, a His-tagged sPD-L1 was labeled with the Ni-NTA-conjugated fluorescent dye and flow cytometry analysis was performed. When ECs were contacted with labeled sPD-L1, a clear staining was observed (Figure 3B).
Binding of sPD-L1 (aa 18–134) to ECs was evaluated by flow cytometry. The His-tagged PD-L1 protein or its mutants were stained with NTA-Atto 647 N fluorescent dye (Sigma Aldrich) for 2 h at 22°C, at 8:1 molar ratio (protein:dye). PD-L1-Atto was formulated in 150 μl PBS with the tested compounds or antibodies. The samples were incubated for 30 min at 4°C in the dark. Meanwhile, ECs were centrifuged, washed with PBS and suspended in fresh PBS at concentration of 1 × 10^6 cells per ml. 50 μl of ECs was added to each sample and incubated on ice for additional 60 min. The final concentrations of the components were: 25 μg/ml of PD-L1 (1.5 μM), 125 μg/ml the anti-PD-L1 antibodies and control antibodies and 1 μM of the BMS compounds. The samples were analyzed using the BD FACS Verse flow cytometer and BD FACSuite v1.0.6 software.

human PD-L1 [8] = biological target: T2, human PD-L1; assay: 1H-15N HMQC NMR titration of PD-L1; format: binding; settings: 15N labeled PD-L1, line broadening upon compound addition
Experimental: Based on the two recent Bristol-Myers Squibb patents, the selection of the BMS compounds was done to obtain high diversity of the chemical structures along all modifications of distal, flexible moieties exposed to the solvent (Figure 1A). The compounds were synthesized as described previously with modifications. All compounds were tested for the interaction with PD-L1 using the ^1H-^15N HMQC NMR titration experiment with positive results, as reported elsewhere and in this manuscript (see below). In order to verify the blockade of the PD-1/PD-L1 interaction by the compounds an NMR-based AIDA was performed. Upon the PD-L1 binding the broadening of ^1H-^15N resonance signals of the ^15N labeled PD-1 is observed due to an increased transverse relaxation rate of the higher molecular weight entities. […] All the compounds efficiently disrupted the complex formed by human PD-1 and PD-L1 proteins, as visualized by the restoration of narrow ^1H-^15N signals of PD-1 ([26] and (Figure 1B)).
For further compound development it is of high importance to define the minimal fragments essential for the binding to the target protein. For this, BMS-1166 and its fragments were tested for interaction with PD-L1 using NMR method. From the six decomposition fragments tested, four retained PD-L1 binding potential (Figure 5).
Uniform ^15N labelling was obtained by expressing proteins in the M9 minimal medium containing ^15NH4Cl as the sole nitrogen source. For NMR measurements the buffer was exchanged by gel filtration to PBS pH 7.4 (PD-L1) or 25 mM sodium phosphate containing 100 mM NaCl pH 6.4 (PD-1). 10% (v/v) of D2O was added to the samples to provide the lock signal. All spectra were recorded at 300K using a Bruker Avance III 600 MHz spectrometer. The interaction of the compounds with PD-L1 was evaluated by monitoring the perturbations in chemical shifts of NMR resonances in the ^1H-^15N 2D HMQC upon titration with the compound. The ability of tested compounds to dissociate PD-L1/PD-1 was evaluated using the Antagonist Induced Dissociation Assay (AIDA). In brief, ^15N-labeled PD-1 (0.2 mM) was slightly overtitrated with the unlabeled PD-L1. The compounds were aliquoted into the resulting mixture. During the experiment the ^1H-^15N signals were monitored by the HMQC.

[9] = test system: PD-L1 aAPC/CHO-K1 cells (aAPCs); assay: Toxicity towards aAPCs; format: cell-based; settings: modified CHO-K1 cells (aAPCs), 48 h treatment

T4 sequence (Q9NZQ7 18-134): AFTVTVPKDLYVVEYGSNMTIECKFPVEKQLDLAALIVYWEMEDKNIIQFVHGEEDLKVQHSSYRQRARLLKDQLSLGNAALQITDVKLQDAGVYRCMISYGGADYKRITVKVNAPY
T2 sequence (Q9NZQ7 18-134): as above
T3 sequence (Q9NZQ7 18-134): as above
T1 sequence (Q9NZQ7 18-134, one chain of several): as the sequence (Q9NZQ7 18-134) above

For `Cc1c(COc2ccc(CN3CCCCC3C(=O)O)cc2Br)cccc1-c1ccccc1` (stereo not drawn) [BMS-8], the “toxicity (in words)” value [1] is given as “moderate toxicity”, the “dissociation of human PD-1/PD-L1 complex in vitro” value (human PD-1/PD-L1 complex) is given as “efficiently dissociate the human PD-1/PD-L1 complex” and the “binding to PD-L1” value (human PD-L1 [2]) is given as “bind to PD-L1”.

For `Cc1c(COc2cc(F)c(CNC[C@@H](O)CC(=O)O)cc2F)cccc1-c1ccc2c(c1)OCCO2` [BMS-200], the “toxicity (in words)” value [1] was “moderate toxicity” and the “effect on luciferase reporter expression (in words)” value (“effect” for short) [3] was “did not affect the reporter expression”.

For `COc1cc(OCc2cccc(-c3ccccc3)c2C)cc(OC)c1CN[C@@H](CO)C(C)C` [BMS-242], the “restoration of sPD-L1-suppressed activation of ECs (in words)” value (“restoration” for short) (PD-1/sPD-L1) was “unspecific decrease in the readout level” and the EC50 at 48 h [4] was 3000 to 6000 nM.

With `Cc1cc(CN[C@H](CO)C(=O)O)c(OCc2cccc(C#N)c2)cc1OCc1cccc(-c2ccc3c(c2)OCCO3)c1C` [BMS-1001] the “sPD-L1 retention time in size exclusion chromatography” value (sPD-L1 [5]) was “significantly shortened”, the “restoration” value (PD-1/sPD-L1) was “completely restored cell activation” and the “sPD-L1 dimer formation by cross-linking (SDS-PAGE)” value (sPD-L1 [6]) was “two bands in SDS-PAGE analysis, corresponding to sPD-L1 monomer and a dimer”. The “staining of ECs by labeled sPD-L1 (in words)” value (“staining of ECs” below) [7] was “significantly decreased the intensity of staining”, the EC50 at 48 h [4] was 33400 nM and the “interaction with PD-L1 (1H-15N HMQC NMR)” value (human PD-L1 [8]) was “induced linewidth broadening”. The “toxicity (in words)” value [9] was “Low toxicity”, the “effect” value [3] was “dose-dependently induced the activity of luciferase” and the “RLUmax (maximal relative luminescence)” value [3] was 1.88 ± 0.16. The EC50 ([3]; Homo sapiens) was 253 ± 120 nM.

In the case of `Cc1c(COc2cc(OCc3cccc(C#N)c3)c(CN3C[C@H](O)C[C@@H]3C(=O)O)cc2Cl)cccc1-c1ccc2c(c1)OCCO2` [BMS-1166], the “staining of ECs” value [7] is reported as “significantly decreased the intensity of staining”, the “interaction with PD-L1 (1H-15N HMQC NMR)” value (human PD-L1 [8]) is reported as “induced linewidth broadening” and the “interaction with PD-L1 (1H-15N HMQC NMR)” value (human PD-L1 [8]; listed as 1) is reported as “active”. For the same compound, the “toxicity (in words)” value [9] was “Low toxicity”, the “effect” value [3] was “dose-dependently induced the activity of luciferase” and the “RLUmax (maximal relative luminescence)” value [3] was 1.72 ± 0.03. It also gave an EC50 ([3]; Homo sapiens) of 276 ± 29 nM.

With `Cc1c(COc2cc(OCc3cccc(C#N)c3)c(C=O)cc2Cl)cccc1-c1ccc2c(c1)OCCO2` [compound 2] the “interaction with PD-L1 (1H-15N HMQC NMR)” value (human PD-L1 [8]) was “active”.

With `Cc1c(COc2cc(O)c(C=O)cc2Cl)cccc1-c1ccc2c(c1)OCCO2` [compound 3] the “interaction with PD-L1 (1H-15N HMQC NMR)” value (human PD-L1 [8]) was “active”.

For `Cc1c(CO)cccc1-c1ccc2c(c1)OCCO2` [compound 4], the “interaction with PD-L1 (1H-15N HMQC NMR)” value (human PD-L1 [8]) was “active”.

For `c1ccc2c(c1)OCCO2` [compound 5], the “interaction with PD-L1 (1H-15N HMQC NMR)” value (human PD-L1 [8]) was “not-active”.

With `Cc1cccc(CBr)c1C` [compound 6] the “interaction with PD-L1 (1H-15N HMQC NMR)” value (human PD-L1 [8]) was “not-active”.

With atezolizumab: anti-PD-L1 antibody the “staining of ECs” value [7] was “significantly decreased the staining”, the EC50 [3] was 0.42 ± 0.049 nM and the “RLUmax (maximal relative luminescence)” value [3] was 2.72 ± 0.02.

With durvalumab: anti-PD-L1 antibody the “staining of ECs” value [7] was “significantly decreased the staining”, the EC50 [3] was 0.333 ± 0.068 nM and the “RLUmax (maximal relative luminescence)” value [3] was 2.94 ± 0.08.

In the case of nivolumab: anti-PD-1 antibody, the “restoration” value (PD-1/sPD-L1) is reported as “abrogated the effect of sPD-L1”.
